According to patent US6365602B1, “N-substituted naphthalene carboxamides as neurokinin-receptor antagonists” (Astra Zeneca AB, priority 1998, dated 2002):
Where a name gives a salt, the structure may show the parent alone.

Legend:
[1] = molecular target: T1, NK1 receptor (Oryctolagus cuniculus, UniProt G1SEI7); test: Rabbit Pulmonary Artery: NK1 in vitro functional assay (Test D); type: cell-based; conditions: relaxation to agonist ASMSP, negative log apparent dissociation constant, read-out: NK1pKb (converted)
T1 construct: Paired tissue segments of pulmonary artery excised from male New Zealand white rabbits; from tissue; host or cells: rabbit pulmonary artery segments
T1 sequence (G1SEI7 1-407): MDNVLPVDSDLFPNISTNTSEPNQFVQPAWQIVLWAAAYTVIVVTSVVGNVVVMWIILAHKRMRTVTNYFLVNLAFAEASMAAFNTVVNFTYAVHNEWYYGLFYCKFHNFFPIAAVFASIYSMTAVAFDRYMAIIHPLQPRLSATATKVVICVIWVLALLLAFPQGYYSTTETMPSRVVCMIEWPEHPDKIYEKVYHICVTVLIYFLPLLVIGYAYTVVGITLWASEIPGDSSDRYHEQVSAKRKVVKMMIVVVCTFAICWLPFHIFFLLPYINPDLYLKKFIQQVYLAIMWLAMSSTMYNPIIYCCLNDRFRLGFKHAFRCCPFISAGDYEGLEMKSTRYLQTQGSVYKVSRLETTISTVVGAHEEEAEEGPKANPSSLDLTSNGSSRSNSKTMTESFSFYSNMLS
Description: Rabbit Pulmonary Artery: NK1 in vitro functional assay (Test D)
The ability of a Compound of the invention to antagonize the action of the agonist Ac-[Arg^6, Sar^9, Met(O2)^11] […] Am. J. Physiol. 268: L152-L159, 1995.
Paired tissue segments of pulmonary artery excised from male New Zealand white rabbits are suspended between stainless steel stirrups for analyses of isometric relaxation under standard conditions in physiological salt solution (PSS) containing indomethacin (5 microM; to block cyclooxygenase) and propranolol (1 microM; to block β adrenergic receptors).
Initial tension placed on each tissue is 2 grams, which is maintained throughout the 1.0 hour equilibration period. Tissues are washed with PSS at 15 minute intervals. At the 30 and 45 minute wash the following treatments are added: Thiorphan (1 microM; to block E.C.3.4.24.11), ((3R)-3-[(1S)-1-(3,4-Dichlorophenyl)-3-(4-[(R or S)-2-methylsulfinyl-phenyl]-piperidino)propyl]-2-ethyl-2,3-dihydroisoindol-1-one) (0.03 microM; to block NK^2 receptors as described in: “Aharony D., et al. Pharmacological Characterization of ZD7944: A Novel, Potent and orally-Active Non-Peptide Neurokinin-A (NK-2) Receptor Antagonist Eur. Respir. J. 12 (Suppl. 12):20S, 1998”), and the given concentration of the Compound being tested. After equilibration, phenylephrine (3 microM) is added to produce steady-state contraction of the tissue and a dose relaxation curve to ASMSP is constructed. […]
For antagonists behaving in a noncompetitive manner, the percent inhibition of relaxation is determined at a given concentration of the antagonist. Percent inhibition is determined when a tested Compound produces a statistically significant reduction of the magnitude of maximum relaxation and is calculated as a percentage of the papaverine reference response For antagonists behaving competitively, potencies are determined by calculating the negative log value of the apparent dissociation constant (pKB) for each concentration tested. Statistical significance is determined when the P value is <0.05 using the Student's t-test for paired comparisons.

[2] = molecular target: T2, NK1 receptors (Cavia porcellus, UniProt P30547); test: NK1 in vivo functional assay (Test F), ASMSP-induced bronchoconstriction; conditions: anesthetized guinea pig, agonist ASMSP, Dose Ratio of ED50 in presence/absence of antagonist
T2 construct: from tissue; host or cells: whole anesthetized guinea pig (airways, in vivo)
T2 sequence (P30547 whole entry): as the sequence (G1SEI7 1-407) above, with S176G, E186S, G329A, L342F, E368D, A369P, N376T, M395V, F399S counted along it
Method: (§1) NK1 and NK2 in vivo functional assay (Test F)
(§2) Exp. Ther., 1993, Vol 267(3), pp 1168-1175. The assay is carried out as follows.
(§3) Compounds are tested in anesthetized guinea pigs pretreated with i.v. indomethacin (10 mg/kg, 20 min.), propranolol (0.5 mg/kg, 15 min.), and thiorphan (10 mg/kg, 10 min).
(§4) […] The agonists used in these studies are ASMSP (Ac-[Arg^6, Sar^9, Met(O2)^11]-SP(6-11)) and BANK (β-ala-8 NKA4-10).
(§5) Administered i.v., ASMSP is selective for NK1 receptors, and BANK is selective for NK2 receptors. Maximum response is defined as zero conductance (GL, 1/Rp). ED50 values are calculated (the dose of agonist resulting in a reduction of GL to 50% of baseline), and converted to the negative logarithm (−logED50). The ED50 values, obtained in the presence (P) and absence (A) of antagonist, are used to calculate a Dose Ratio (P/A), an expression of potency. Data are expressed as mean±SEM and statistical differences were determined using ANOVA/Tukey-Kramer and Student's t-test, with p<0.05 considered statistically significant.

[3] = molecular target: T3, NK2 receptors (Cavia porcellus, UniProt Q64077); test: NK2 in vivo functional assay (Test F), BANK-induced bronchoconstriction; conditions: anesthetized guinea pig, agonist BANK, Dose Ratio of ED50 in presence/absence of antagonist
T3 construct: from tissue; host or cells: whole anesthetized guinea pig (airways, in vivo)
T3 sequence (Q64077 1-402): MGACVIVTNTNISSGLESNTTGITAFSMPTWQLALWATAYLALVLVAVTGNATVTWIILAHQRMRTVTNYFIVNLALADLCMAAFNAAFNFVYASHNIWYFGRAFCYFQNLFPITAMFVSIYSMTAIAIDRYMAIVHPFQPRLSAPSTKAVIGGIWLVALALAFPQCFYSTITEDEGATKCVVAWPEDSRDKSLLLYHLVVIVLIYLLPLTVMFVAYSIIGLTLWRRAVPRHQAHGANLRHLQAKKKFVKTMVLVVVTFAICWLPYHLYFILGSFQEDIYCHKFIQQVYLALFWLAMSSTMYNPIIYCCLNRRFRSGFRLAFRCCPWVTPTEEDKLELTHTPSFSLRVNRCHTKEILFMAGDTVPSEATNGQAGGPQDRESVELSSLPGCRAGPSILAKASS
Method: as §1, §2, §3, §4, §5

[4] = molecular target: T4, NK2 receptor (Oryctolagus cuniculus, UniProt P79218); test: NK2 in vitro functional assay (Test E), rabbit pulmonary artery; type: cell-based; conditions: contraction to agonist BANK, negative log apparent dissociation constant, read-out: NK2pKb (converted)
T4 construct: Left and right pulmonary arteries are excised from male New Zealand white rabbits; from tissue; host or cells: rabbit pulmonary artery ring segments, endothelium removed
T4 sequence (P79218 1-384): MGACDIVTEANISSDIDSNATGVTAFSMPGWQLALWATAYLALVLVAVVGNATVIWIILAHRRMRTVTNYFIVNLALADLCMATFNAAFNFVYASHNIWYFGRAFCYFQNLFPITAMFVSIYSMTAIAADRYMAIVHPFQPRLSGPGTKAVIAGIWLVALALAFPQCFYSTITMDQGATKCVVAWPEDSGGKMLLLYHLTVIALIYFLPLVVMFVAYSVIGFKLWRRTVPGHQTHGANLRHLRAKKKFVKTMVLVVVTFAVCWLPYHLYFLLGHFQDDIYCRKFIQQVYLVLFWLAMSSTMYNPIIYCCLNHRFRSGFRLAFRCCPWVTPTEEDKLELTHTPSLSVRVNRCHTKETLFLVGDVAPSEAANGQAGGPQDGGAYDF
Description: NK2 in vitro functional assay (Test E)
The ability of a Compound of the invention to antagonize the action of the agonist [β-ala^8] […] Am. J. Physiol. […] Left and right pulmonary arteries are excised from male New Zealand white rabbits. The pulmonary arteries are cut into ring segments and the intimal surface rubbed gently to remove the endothelium. Paired tissue segments of pulmonary artery are suspended between stainless steel stirrups for analyses of isometric tension development under standard conditions in physiological salt solution (PSS) containing indomethacin, (5 microM; to inhibit cyclooxygenase).
Initial tension placed on each tissue is 2 grams, which is maintained throughout the 45 minute equilibration period. Tissues are washed with PSS at 15 minute intervals. After the 45 minute equilibration period, 3×10^−2M KCl is applied for 60 minutes to test tissue viability. The tissues are then washed extensively for 30 minutes. The concentration of the Compound being tested is then added for 30 minutes before constructing a cumulative concentration-response curve with BANK. The curve is considered complete when each tissue fails to contract further for 2 consecutively increasing BANK concentrations. BaCl2 (3×10^−2M ) is then added to produce a maximum reference contraction.
Percent inhibition is determined when a tested Compound produces a statistically significant reduction in the magnitude of maximum contraction and is calculated as a percentage of the BaCl2 reference response. For antagonists behaving competitively, potencies are determined by calculating the negative log value of the apparent dissociation constant (pKB) for each concentration tested. Statistical significance is determined when the P value is <0.05 using the Student's t-test for paired comparisons.
as §1

melting point | Kd [1] [nM] | NK1 P/A ([2]; 2 hr) | NK2 P/A ([3]; 2 hr) | Kd [4] [nM] | NK1 P/A ([2]; 1 hr) | NK2 P/A ([3]; 1 hr) | Structure (SMILES)
175 to 180 °C | – | – | – | – | – | – | CN(C[C@@H](CCN1CCC(c2ccc([S+](C)[O-])c(F)c2)CC1)c1ccc(Cl)c(Cl)c1)C(=O)c1cc(C#N)cc2ccccc12 (stereo partly drawn) (as salt: hydrochloride) [Example 60, N-[(S)-2-(3,4-Dichlorophenyl)-4-[4-[3-fluoro-4-methylsulfinylphenyl]-1-piperidinyl]butyl]-N-methyl-3-cyano-1-naphthamide]
– | 1.02 | 32.5 (2 hr) | 21.4 (2 hr) | 5.5 | – | – | CN(C[C@@H](CCN1CCC(c2ccccc2[S@+](C)[O-])CC1)c1ccc(Cl)c(Cl)c1)C(=O)c1cc(C#N)cc2ccccc12 [Example 1, N-[(S)-2-(3,4-Dichlorophenyl)-4-[4-[(S)-2-methylsulfinylphenyl]-1-piperidinyl]butyl]-N-methyl-3-cyano-1-naphthamide]

Continued, compound first:

Structure (SMILES) | melting point | Kd [1] [nM] | NK1 P/A ([2]; 2 hr) | NK2 P/A ([3]; 2 hr) | Kd [4] [nM] | NK1 P/A ([2]; 1 hr) | NK2 P/A ([3]; 1 hr)
COc1ccc(C2CCN(CC[C@H](CN(C)C(=O)c3cc(C#N)cc4ccccc34)c3ccc(Cl)c(Cl)c3)CC2)c([S@+](C)[O-])c1.O=C(O)CC(O)(CC(=O)O)C(=O)O [Example 2, N-[(S)-2-(3,4-Dichlorophenyl)-4-[4-{4-methoxy-(S)-2-methylsulfinylphenyl}-1-piperidinyl]butyl]-N-methyl-3-cyano-1-naphthamide Citrate] | – | 7.94 | 25.0 (2 hr) | 83.0 (2 hr) | 2 | – | –
CN(C[C@@H](CCN1CCC(N2CCCNC2=O)CC1)c1ccc(Cl)c(Cl)c1)C(=O)c1cc(C#N)cc2ccccc12 [Example 36, N-[(S)-2-(3,4-Dichlorophenyl)-4-[4-[tetrahydro-2-oxo-1(2H)-pyrimidinyl]-1-piperidinyl]-butyl]-N-methyl-3-cyano-1-naphthamide Citrate Hydrate (1:1:1.5)] | – | 7.41 | – | – | 13.8 | 45.0 (1 hr) | 20.6 (1 hr)
CCN(C[C@@H](CCN1CCC(c2ccccc2[S@+](C)[O-])CC1)c1ccc(Cl)c(Cl)c1)C(=O)c1cc(C#N)cc2ccccc12 [Example 69, N-[(S)-2-(3,4-Dichlorophenyl)-4-[4-[(S)-2-methylsulfinylphenyl]-1-piperidinyl]butyl]-N-ethyl-3-cyano-1-naphthamide] | 115 to 118 °C (dec.) | – | – | – | – | – | –
